Source: patent US20150342956A1, “METHODS OF TREATMENT FOR CONDITIONS MEDIATED BY SUBSTANCE P” (Beller Pharmaceuticals LLC, priority 2014, published 2015)

What was measured:
[1] = system: INS symptoms in patients with a diagnosis of atypical reflux; assay: Retrospective medical record review: global level of improvement (GLI) with immunotherapy and/or oral medications; assay type: in vivo, human; details: GLI 0-100% score
Protocol: Some symptoms of INS have previously been associated with atypical reflux. This example describes a retrospective medical record review for cases in which these symptoms were treated with immunotherapy (allergy shots) and/or oral medications (omeprazole, gabapentin, and/or baclofen).
The population for this example included patients 18 years or older with a diagnosis of atypical reflux and a recorded diagnostic code of 530.81 (see, e.g., http://www.cms.gov/Medicare/Coding/ICD9ProviderDiagnosticCodes/index.html). A randomized sample of 307 cases was derived from a total of 650 patients.
Of the 307 cases, 191 (62.2%) patients tested positive for allergy, 74 (24.1%) were negative, and 42 (13.7%) had unknown allergy status. Allergy refers to IgE-mediated allergies such as ragweed, dust mites, trees, grass, pets, stinging insects, peanuts, etc. Of the 191 cases with allergy, 57 (29.8%) had no immunotherapy, 8 (4.2%) had received immunotherapy in the past, and 126 (66.0%) were currently receiving immunotherapy. Of the 126 currently receiving immunotherapy (abbreviated below as “IT”), 70 (55.6%) had reached maintenance dosing (defined as the effective, therapeutic dose; “on main”) and 56 […] had not yet reached maintenance dosing (“not on main”). The period of immunotherapy is about 3-5 years, and individuals typically reach maintenance dosing by the second half of the first year.
Of the 307 cases, 213 (69.3%) were taking one medication and 86 (28%) were taking no medication. Seven patients were taking two medications, and one patient was taking three medications. Three oral medications used to treat INS were compared: high dose acid suppression using omeprazole (40 mg twice a day), baclofen (40 mg twice a day), and gabapentin (300 mg gradually increasing from one to three times a day).
Global level of improvement (GLI) was represented by a 0-100% score. At each clinical visit, patients were asked to estimate the percentage of their overall improvement. Those figures were entered into the medical record as a GLI score. Trials documented as failed (stopped either due to lack of benefit or dose-limiting side effects) or inadequate (dose never titrated to benefit or side effect) are not included in the results below.

INS symptoms = assay: Exemplary cases of INS: patient-ranked symptom severity (1-10) and GLI score before and after treatment; assay type: in vivo, human; details: for Global Improvement (global level of improvement): three months (gabapentin stopped more than a month prior)
Protocol: This example describes three exemplary cases of INS. Patients were given a list of INS symptoms and asked to rank those present on a scale of 1-10, with 10 indicating most severe. Treatment was provided (gabapentin, omeprazole, and/or immunotherapy).
Patient two is a person who presented complaining of cough, runny nose, and sneezing. […] They were started on gabapentin (900 mg) and returned in two weeks for re-evaluation. They reported 60% global level of improvement with gabapentin. They were also started on immunotherapy for its long-lasting benefits. They returned for further evaluation three months later to report they had improved by 85% and had stopped the gabapentin more than a month prior to their last visit. Their symptoms were scored for severity from 1 (mild) to 10 (severe) on initial evaluation, after gabapentin, and after three months of immunotherapy. Their scores are below:
Patient three is a person who presented complaining of cough, post nasal drip, and runny nose. […] The patient was started on immunotherapy and returned for follow-up after four months of immunotherapy. Due to their busy schedule the patient had missed several shot visits and their immunotherapy doses were never increased to the maximum, maintenance dose. They were receiving doses at 1/10th of the maintenance dose. They reported 40% improvement. Omeprazole 40 mg two times daily was added to their regimen and they returned for re-evaluation one week later to report 100% improvement. Their symptom scores are below:
Patient one is a child who presented with their parent complaining of shortness of breath and cough. […] Their parent stated that they commonly wet the bed 2-3 times each night. They were started on omeprazole 20 mg twice a day and returned in a week. […] Their parent estimated 45% global level of improvement. The omeprazole was discontinued due to headaches and they were started on gabapentin. Their parent was advised to increase the dose slowly until it seemed to help or was causing side effects. They returned in two weeks for re-evaluation and had achieved 900 mg twice daily on gabapentin. Their parent estimated 85% global level of improvement.

[2] = No IT (no allergy, or positive allergy but no immunotherapy)
[3] = Patient one, omeprazole 20 mg twice a day, one week, then gabapentin 900 mg twice daily, two weeks
[4] = Patient one, score 1-10, 0 = not present, initial visit 0, omeprazole 20 mg twice a day, one week, then gabapentin 900 mg twice daily, two weeks
[5] = Patient one, score 1-10, 0 = not present, initial visit 3, omeprazole 20 mg twice a day, one week, then gabapentin 900 mg twice daily, two weeks
[6] = Patient one, score 1-10, 0 = not present, initial visit 4, omeprazole 20 mg twice a day, one week, then gabapentin 900 mg twice daily, two weeks
[7] = Patient one, score 1-10, 0 = not present, initial visit 5, omeprazole 20 mg twice a day, one week, then gabapentin 900 mg twice daily, two weeks
[8] = Patient one, score 1-10, 0 = not present, initial visit 6, omeprazole 20 mg twice a day, one week, then gabapentin 900 mg twice daily, two weeks
[9] = Patient one, score 1-10, 0 = not present, initial visit 7, omeprazole 20 mg twice a day, one week, then gabapentin 900 mg twice daily, two weeks
[10] = Patient one, score 1-10, 0 = not present, initial visit 8, omeprazole 20 mg twice a day, one week, then gabapentin 900 mg twice daily, two weeks
[11] = Patient one, score 1-10, 0 = not present, initial visit 10, omeprazole 20 mg twice a day, one week, then gabapentin 900 mg twice daily, two weeks
[12] = Patient two, score 1-10, 0 = not present, initial visit 5, gabapentin 900 mg, two weeks, immunotherapy, three months
[13] = Patient two, score 1-10, 0 = not present, initial visit 6, gabapentin 900 mg, two weeks, immunotherapy, three months
[14] = Patient two, score 1-10, 0 = not present, initial visit 7, gabapentin 900 mg, two weeks, immunotherapy, three months
[15] = Patient two, score 1-10, 0 = not present, initial visit 8, gabapentin 900 mg, two weeks, immunotherapy, three months
[16] = Patient two, score 1-10, 0 = not present, initial visit 10, gabapentin 900 mg, two weeks, immunotherapy, three months
[17] = Patient three, score 1-10, 0 = not present, initial visit 5, immunotherapy four months at 1/10th of maintenance dose, then omeprazole 40 mg two times daily added, one week
[18] = Patient three, score 1-10, 0 = not present, initial visit 6, immunotherapy four months at 1/10th of maintenance dose, then omeprazole 40 mg two times daily added, one week
[19] = Patient three, score 1-10, 0 = not present, initial visit 7, immunotherapy four months at 1/10th of maintenance dose, then omeprazole 40 mg two times daily added, one week
[20] = Patient three, score 1-10, 0 = not present, initial visit 10, immunotherapy four months at 1/10th of maintenance dose, then omeprazole 40 mg two times daily added, one week

NCC1(CC(=O)O)CCCCC1 [Gabapentin, gabapentin]
5: Shortness of breath severity score (INS symptoms; [7]) | Throat Clearing severity score (INS symptoms; [10])
70.29%: Mean GLI ([1]; IT on maintenance dosing)
1: Hoarse Voice severity score (INS symptoms; Patient two, score 1-10, 0 = not present, initial visit 2, gabapentin 900 mg, two weeks, immunotherapy, three months) | Pain in the teeth severity score (INS symptoms; Patient two, score 1-10, 0 = not present, initial visit 3, gabapentin 900 mg, two weeks, immunotherapy, three months) | Malaise severity score (INS symptoms; [12]) | Runny Nose severity score (INS symptoms; [14]) | Sore Throat severity score (INS symptoms; [14]) | Throat Clearing severity score (INS symptoms; [14]) | Vertigo severity score (INS symptoms; [14]) | Post Nasal Drip severity score (INS symptoms; [15]) | Frontal Headache severity score (INS symptoms; [16]) | Itchy Eyes severity score (INS symptoms; [16])
85%: Global Improvement (global level of improvement, estimated by mother) (INS symptoms; [3]) | Global Improvement (global level of improvement, estimated by mother) (INS symptoms; Patient one, omeprazole 20 mg twice a day, one week, then gabapentin 900 mg twice daily, two weeks, listed as gabapentin)
65.58%: Mean GLI [1, 2]
4: Shortness of breath severity score (INS symptoms; [13]) | Itchy Skin severity score (INS symptoms; [16])
60%: Global Improvement (global level of improvement) (INS symptoms; Patient two, gabapentin 900 mg, two weeks, immunotherapy) | Global Improvement (global level of improvement) (INS symptoms; Patient two, gabapentin 900 mg, two weeks, immunotherapy, listed as gabapentin)
2: Fatigue severity score (INS symptoms; [6]) | Malaise severity score (INS symptoms; [6]) | Pollakiuria severity score (INS symptoms; [10]) | Ear Pressure severity score (INS symptoms; [12]) | Watery Eyes severity score (INS symptoms; [12]) | Chest Tightness severity score (INS symptoms; [14]) | Cough severity score (INS symptoms; Patient two, score 1-10, 0 = not present, initial visit 9, gabapentin 900 mg, two weeks, immunotherapy, three months) | Repetitive Sneezing severity score (INS symptoms; [16])
69.09%: Mean GLI ([1]; IT not on maintenance dosing)
55.19%: Mean GLI ([1]; No allergy)
3: Cough severity score (INS symptoms; [10]) | Post Nasal Drip severity score (INS symptoms; [10]) | Fatigue severity score (INS symptoms; [13]) | Glossodynia severity score (INS symptoms; [14]) | Puffy Eyelids severity score (INS symptoms; [15]) | Itchy Pharynx severity score (INS symptoms; [16]) | Sinus Pressure severity score (INS symptoms; [16])
0: Frontal Headache severity score (INS symptoms; [4]) | Vulvodynia severity score (INS symptoms; [5]) | Nausea severity score (INS symptoms; [6]) | Chest Tightness severity score (INS symptoms; [8]) | Watery Eyes severity score (INS symptoms; [8]) | Sore Throat severity score (INS symptoms; [9]) | Bedwetting severity score (INS symptoms; [11]) | Runny Nose severity score (INS symptoms; [11])

NCC(CC(=O)O)c1ccc(Cl)cc1 (stereo not shown) [Baclofen, baclofen]
65.00%: Mean GLI ([1]; No allergy)
88.33%: Mean GLI ([1]; IT not on maintenance dosing)
70.00%: Mean GLI ([1]; IT on maintenance dosing)
53.94%: Mean GLI [1, 2]

COc1ccc2[nH]c([S+]([O-])Cc3ncc(C)c(OC)c3C)nc2c1 (stereo not shown) [Omeprazole, omeprazole]
2: Fatigue severity score (INS symptoms; [6]) | Malaise severity score (INS symptoms; [6]) | Watery Eyes severity score (INS symptoms; [8]) | Pollakiuria severity score (INS symptoms; [10])
1: Excessive Ear Wax severity score (INS symptoms; [17]) | Hoarse Voice severity score (INS symptoms; [19]) | Itchy Eyes severity score (INS symptoms; [19])
3: Chest Tightness severity score (INS symptoms; [8]) | Post Nasal Drip severity score (INS symptoms; [10])
100%: Global Improvement (INS symptoms; Patient three, immunotherapy four months at 1/10th of maintenance dose, then omeprazole 40 mg two times daily added, one week)
some headaches: Possible side effect (INS symptoms; Patient one, omeprazole 20 mg twice a day, one week, drug discontinued)
60.00%: Mean GLI ([1]; IT not on maintenance dosing)
5: Shortness of breath severity score (INS symptoms; [7]) | Sore Throat severity score (INS symptoms; [9]) | Runny Nose severity score (INS symptoms; [11])
0: Vulvodynia severity score (INS symptoms; [5]) | Nausea severity score (INS symptoms; [6]) | Bedwetting severity score (INS symptoms; [11]) | Ear Pressure severity score (INS symptoms; [17]) | Pain in the teeth severity score (INS symptoms; [17]) | Repetitive Sneezing severity score (INS symptoms; [17]) | Epistaxis severity score (INS symptoms; [18]) | Frontal Headache severity score (INS symptoms; [18]) | Pollakiuria severity score (INS symptoms; [18]) | Sore Throat severity score (INS symptoms; [19]) | Watery Eyes severity score (INS symptoms; [19]) | Chest Tightness severity score (INS symptoms; [20]) | Cough severity score (INS symptoms; [20]) | Nasal Congestion severity score (INS symptoms; [20]) | Post Nasal Drip severity score (INS symptoms; [20]) | Runny Nose severity score (INS symptoms; [20]) | Sinus Pressure severity score (INS symptoms; [20]) | Throat Clearing severity score (INS symptoms; [20]) | Vertigo severity score (INS symptoms; [20])
8: Frontal Headache severity score (INS symptoms; [4]) | Throat Clearing severity score (INS symptoms; [10])
45%: Global Improvement (global level of improvement, estimated by mother) (INS symptoms; [3]) | Global Improvement (global level of improvement, estimated by mother) (INS symptoms; Patient one, omeprazole 20 mg twice a day, one week, then gabapentin 900 mg twice daily, two weeks, listed as omeprazole)
80.00%: Mean GLI ([1]; IT on maintenance dosing)
56.67%: Mean GLI [1, 2]
4: Cough severity score (INS symptoms; [10])
41.00%: Mean GLI ([1]; No allergy)
